Molecules are shown by their SMILES. Some results are limits rather than exact numbers.

The experiment deals with T1, hNLRP3 (Homo sapiens, UniProt Q96P20).
T1 construct: THP-1 cells were purchased from the American Type Culture Collection; host or cells: THP-1 cells, PMA-differentiated
T1 sequence (Q96P20 whole entry): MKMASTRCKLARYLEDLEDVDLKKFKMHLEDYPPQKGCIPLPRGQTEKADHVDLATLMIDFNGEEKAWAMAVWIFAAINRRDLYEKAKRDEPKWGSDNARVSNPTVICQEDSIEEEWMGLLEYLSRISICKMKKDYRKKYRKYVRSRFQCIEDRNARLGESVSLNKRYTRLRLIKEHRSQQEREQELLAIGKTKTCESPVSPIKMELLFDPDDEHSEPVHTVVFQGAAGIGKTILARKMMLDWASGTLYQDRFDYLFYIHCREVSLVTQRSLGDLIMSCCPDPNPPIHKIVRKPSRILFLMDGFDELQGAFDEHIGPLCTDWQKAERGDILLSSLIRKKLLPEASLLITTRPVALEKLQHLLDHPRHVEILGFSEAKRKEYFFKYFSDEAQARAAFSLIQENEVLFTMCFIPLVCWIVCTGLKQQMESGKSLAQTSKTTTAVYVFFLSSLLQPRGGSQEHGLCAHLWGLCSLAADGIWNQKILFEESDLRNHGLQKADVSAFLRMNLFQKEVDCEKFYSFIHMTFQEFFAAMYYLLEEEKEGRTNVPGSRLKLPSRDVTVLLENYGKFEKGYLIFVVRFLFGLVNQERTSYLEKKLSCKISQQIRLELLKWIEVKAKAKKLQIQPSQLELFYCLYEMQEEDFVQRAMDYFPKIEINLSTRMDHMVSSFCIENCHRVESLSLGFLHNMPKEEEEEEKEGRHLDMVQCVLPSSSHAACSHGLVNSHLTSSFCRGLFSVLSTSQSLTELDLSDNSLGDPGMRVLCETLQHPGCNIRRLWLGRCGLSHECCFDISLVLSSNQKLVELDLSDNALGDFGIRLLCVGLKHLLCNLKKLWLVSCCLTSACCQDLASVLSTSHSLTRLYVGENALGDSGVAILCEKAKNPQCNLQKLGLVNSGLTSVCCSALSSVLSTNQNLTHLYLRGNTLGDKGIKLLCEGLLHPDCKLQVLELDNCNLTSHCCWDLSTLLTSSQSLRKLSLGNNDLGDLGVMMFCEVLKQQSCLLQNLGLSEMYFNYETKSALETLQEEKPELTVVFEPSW
Put plainly: IL-1β production in PMA-differentiated THP-1 cells stimulated with gramicidin. The following applies: gramicidin 5 μM, IL-1β in supernatant, Table 2. It counts as cell-based. Summed up: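 THP-1 cells differentiated with PMA (10 μg/ml, 24 h, or 20 ng/ml, 16-18 h), replated in 2% FBS RPMI and preincubated with compound for 1 h before 5 μM gramicidin for 2 h. Supernatant IL-1β measured by ELISA (1% DMSO) or HTRF (0.38% DMSO).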
For `CC(C)c1cc(Cl)cc(C(C)C)c1NC(=O)NS(=O)(=O)c1cc(C2(O)CC2)cs1` [Compound 229, N-(4-chloro-2,6-diisopropylphenyl-carbamoyl)-4-(1-hydroxycyclo-propyl)thiophene-2-sulfonamide], the 50% inhibitory concentration (IC50) (in general, the concentration that inhibits the measured activity by half) was less than 1 µM. `CCc1ccc2c(c1NC(=O)NS(=O)(=O)c1ncc(C(C)(C)O)s1)CCC2` [Compound 165, N-(5-ethyl-2,3-dihydro-1H-inden-4-ylcarbamoyl)-5-(2-hydroxypropan-2-yl) thiazole-2-sulfonamide]: the IC50 lay in the range of 1 to 5 µM.

For `Cc1nc(S(=O)(=O)NC(=O)Nc2c(C(C)C)cc(F)cc2C(C)C)sc1C(C)(C)O` [Compound 152, N-(4-fluoro-2,6-diisopropylphenylcarbamoyl)-5-(2-hydroxypropan-2-yl)-4-methylthiazole-2-sulfonamide], the half-inhibitory concentration (IC50) fell in the range of 5 to 15 µM. Turning to `CC(C)c1ccc(F)c(C(C)C)c1NC(=O)NS(=O)(=O)c1cc(C2(O)CC2)cs1` [Compound 218, N-(3-fluoro-2,6-diisopropylphenyl-carbamoyl)-4-(1-hydroxycyclo-propyl)thiophene-2-sulfonamide], the IC50 is less than 1 µM.

Source of the values: patent US11339136B2 (Novartis AG, priority 2016, dated 2022).
